# According to patent publication US10076522B2, “Systems and methods for treating bacterial infection” (priority 2016, dated 2018):
# Experiments:
# [1] = molecular target: SCNSA sodium channel (Homo sapiens, UniProt Q14524); experiment: Sodium channel inhibition
# [2] = Phase III REVIVE-1 study, safety (adverse events)
# Description: All subjects who received any study drug were evaluated for safety on the basis of medical history and physical examinations, reports of clinical AEs, routine electrocardiography, and clinically significant findings from routine liver function tests, serum chemistry, hematology, coagulation, and urinalysis (UA) tests. All adverse events were recorded throughout the study period, up to and including the LFU phone call. While blinded to treatment assignment, the investigator categorized the severity of each AE and the potential for relationship to study drug. Serious AEs (SAEs) include those that were life threatening, led to prolongation of the existing hospitalization, a congenital anomaly/birth defect, or caused persistent or significant disability, incapacity, or death. Treatment-emergent AEs (TEAEs) were defined as those that start or worsen in severity during or after the first dose of study drug administration through end of study.
# Safety evaluation included incidence of TEAEs, laboratory test results (including liver function tests), vital signs, ECG results, and physical examination findings. All summaries of safety data was based on the safety population (all treated subjects).
# The AE summary tables included subject (patient) counts. Therefore, if a subject experienced more than one episode of a particular AE, the subject was counted only once for that event. If a subject had more than one AE that was coded to the same preferred term, the subject was counted only once for that preferred term. Similarly, if a subject had more than one AE within a SOC, the subject was counted only once in that SOC.
# [3] = tested on: isolated rabbit Purkinje fibers
# Chain of SCNSA sodium channel (Q14524 whole entry): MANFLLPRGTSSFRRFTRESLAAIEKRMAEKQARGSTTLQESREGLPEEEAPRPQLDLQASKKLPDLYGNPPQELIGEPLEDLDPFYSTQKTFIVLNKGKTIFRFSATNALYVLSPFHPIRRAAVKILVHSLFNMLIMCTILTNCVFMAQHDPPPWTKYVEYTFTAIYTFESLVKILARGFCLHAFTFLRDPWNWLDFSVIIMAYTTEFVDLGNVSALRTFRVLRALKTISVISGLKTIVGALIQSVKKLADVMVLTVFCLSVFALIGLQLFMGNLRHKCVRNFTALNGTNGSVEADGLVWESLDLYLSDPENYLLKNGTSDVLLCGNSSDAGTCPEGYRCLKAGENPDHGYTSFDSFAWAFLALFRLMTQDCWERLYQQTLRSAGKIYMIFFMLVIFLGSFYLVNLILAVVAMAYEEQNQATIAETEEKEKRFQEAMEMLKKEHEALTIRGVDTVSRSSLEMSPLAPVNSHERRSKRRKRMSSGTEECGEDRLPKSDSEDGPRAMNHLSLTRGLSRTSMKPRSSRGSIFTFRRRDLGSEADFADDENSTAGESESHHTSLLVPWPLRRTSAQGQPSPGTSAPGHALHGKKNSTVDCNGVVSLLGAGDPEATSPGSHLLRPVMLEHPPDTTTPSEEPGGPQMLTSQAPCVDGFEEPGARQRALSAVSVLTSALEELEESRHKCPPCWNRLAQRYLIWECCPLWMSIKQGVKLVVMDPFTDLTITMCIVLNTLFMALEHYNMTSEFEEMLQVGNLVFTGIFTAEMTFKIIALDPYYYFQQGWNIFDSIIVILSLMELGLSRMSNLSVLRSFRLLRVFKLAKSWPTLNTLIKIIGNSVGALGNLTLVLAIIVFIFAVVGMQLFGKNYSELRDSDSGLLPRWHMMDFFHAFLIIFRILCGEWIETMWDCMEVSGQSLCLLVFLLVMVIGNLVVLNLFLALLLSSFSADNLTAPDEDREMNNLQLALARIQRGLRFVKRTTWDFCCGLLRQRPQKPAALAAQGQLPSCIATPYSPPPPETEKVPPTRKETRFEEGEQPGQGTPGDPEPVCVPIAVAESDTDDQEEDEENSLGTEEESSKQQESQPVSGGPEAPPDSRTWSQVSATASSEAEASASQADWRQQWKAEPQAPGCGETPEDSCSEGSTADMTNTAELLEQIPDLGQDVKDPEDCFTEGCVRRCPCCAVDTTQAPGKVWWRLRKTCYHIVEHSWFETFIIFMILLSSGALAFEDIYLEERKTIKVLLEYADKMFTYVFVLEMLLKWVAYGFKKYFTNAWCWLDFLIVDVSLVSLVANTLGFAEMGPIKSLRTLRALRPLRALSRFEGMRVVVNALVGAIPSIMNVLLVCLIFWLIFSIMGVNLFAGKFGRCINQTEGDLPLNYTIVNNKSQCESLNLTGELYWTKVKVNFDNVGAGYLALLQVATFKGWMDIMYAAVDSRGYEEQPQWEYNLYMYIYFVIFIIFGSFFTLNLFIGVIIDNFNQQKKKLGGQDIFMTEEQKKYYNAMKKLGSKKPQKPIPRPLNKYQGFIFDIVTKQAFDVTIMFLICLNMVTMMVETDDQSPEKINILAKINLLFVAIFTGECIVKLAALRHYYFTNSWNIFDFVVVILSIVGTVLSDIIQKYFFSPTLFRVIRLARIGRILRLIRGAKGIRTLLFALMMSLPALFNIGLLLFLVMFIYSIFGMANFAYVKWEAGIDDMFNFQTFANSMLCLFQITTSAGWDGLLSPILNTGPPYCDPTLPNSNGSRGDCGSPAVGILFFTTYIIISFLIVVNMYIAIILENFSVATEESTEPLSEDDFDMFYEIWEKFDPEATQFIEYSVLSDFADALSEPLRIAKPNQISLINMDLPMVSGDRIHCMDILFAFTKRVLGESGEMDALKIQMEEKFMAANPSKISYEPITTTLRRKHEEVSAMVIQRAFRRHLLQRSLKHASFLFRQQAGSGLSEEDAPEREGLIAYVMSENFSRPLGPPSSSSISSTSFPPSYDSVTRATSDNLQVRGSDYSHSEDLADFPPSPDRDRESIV
structure (smiles),measurement,setting,value
COc1cc(Cc2cnc(N)nc2N)c2c(c1OC)OC(C1CC1)C=C2 (racemic) [Iclaprim],IC50,[1],95 µM
same,"Deaths, number of subjects",[2]; REVIVE-1 safety population,0
same,"Deaths, percent of subjects",[2]; REVIVE-1 safety population,0.0%
same,"Study drug related TEAEs, number of subjects","[2]; human, in vivo",57
same,"Study drug related TEAEs, percent of subjects","[2]; human, in vivo",19.5%
same,"TEAE-related SAEs (Serious AEs), number of subjects","[2]; human, in vivo",8
same,"TEAE-related SAEs (Serious AEs), percent of subjects","[2]; human, in vivo",2.7%
same,"TEAEs (Treatment Emergent Adverse Events), number of subjects","[2]; human, in vivo",151
same,"TEAEs (Treatment Emergent Adverse Events), percent of subjects","[2]; human, in vivo",51.5%
same,"TEAEs leading to discontinuation of study drug, number of subjects","[2]; human, in vivo",8
same,"TEAEs leading to discontinuation of study drug, percent of subjects","[2]; human, in vivo",2.7%
same,concentration above which action potential duration was increased,[3],above 1 μM
